Where two headings read alike, the source gives them in different places. One block for each molecule: values may come before it.
Tests used:
Assay type in all cases: biochemical
[1] = biological target: T1, JAK1 (aa 850-1154, catalytic domain, GST-tag) (Homo sapiens, UniProt P23458); test: JAK kinase assay (HTRF, phosphorylation of TK substrate-biotin), JAK1; conditions: ATP at Km (7 μM), read-out: JAK1 kinase inhibitory activity (EC50 indicator)
T1 construct: JAK1 (aa 850-1154) and TYK2 (aa 871-1187) are expressed with an N-terminally fused GST-tag; GST (N); purchased Carna Biosciences, Inc; host or cells: baculovirus expression system
Outline: (§1)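 Catalytic-domain kinases phosphorylated 1 μM biotin-TK substrate at ATP Km (JAK1 7 μM, JAK2 4 μM, JAK3 2 μM, TYK2 13 μM) in Hepes pH 7.0 with DTT and MgCl2, for 20-30 min at RT; JAK1 and TYK2 also had 50 nM SEB. Detection was by HTRF (streptavidin-XL665/Cryptate antibody) overnight, giving EC50.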

[2] = biological target: T2, JAK2 (catalytic domain, His-tag) (Homo sapiens, UniProt O60674); test: JAK kinase assay (HTRF, phosphorylation of TK substrate-biotin), JAK2; conditions: ATP at Km (4 μM), read-out: JAK2 kinase inhibitory activity (EC50 indicator)
T2 construct: All four purified enzymes contain only the catalytic domain; His (N); purchased Carna Biosciences, Inc; host or cells: baculovirus expression system
Outline: as §1

[3] = biological target: T3, JAK3 (catalytic domain, His-tag) (Homo sapiens, UniProt P52333); test: JAK kinase assay (HTRF, phosphorylation of TK substrate-biotin), JAK3; conditions: ATP at Km (2 μM), read-out: JAK3 kinase inhibitory activity (EC50 indicator)
T3 construct: All four purified enzymes contain only the catalytic domain; His (N); purchased Carna Biosciences, Inc; host or cells: baculovirus expression system
Outline: as §1

[4] = biological target: T4, TYK2 (aa 871-1187, catalytic domain, GST-tag) (Homo sapiens, UniProt P29597); test: JAK kinase assay (HTRF, phosphorylation of TK substrate-biotin), TYK2; conditions: ATP at Km (13 μM), read-out: TYK2 kinase inhibitory activity (EC50 indicator)
T4 construct: JAK1 (aa 850-1154) and TYK2 (aa 871-1187) are expressed with an N-terminally fused GST-tag; GST (N); purchased Carna Biosciences, Inc; host or cells: baculovirus expression system
T4 sequence (P29597 871-1187): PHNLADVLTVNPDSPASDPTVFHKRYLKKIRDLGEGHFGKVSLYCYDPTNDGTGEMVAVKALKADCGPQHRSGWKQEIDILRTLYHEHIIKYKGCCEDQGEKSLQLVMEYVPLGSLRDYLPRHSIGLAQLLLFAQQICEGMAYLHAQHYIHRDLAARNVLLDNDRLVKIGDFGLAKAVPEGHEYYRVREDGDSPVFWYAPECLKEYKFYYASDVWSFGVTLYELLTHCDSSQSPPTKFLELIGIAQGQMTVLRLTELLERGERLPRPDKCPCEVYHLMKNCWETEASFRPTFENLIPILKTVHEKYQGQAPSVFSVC
Outline: as §1

T2 sequence (O60674 849-1124 limits assumed): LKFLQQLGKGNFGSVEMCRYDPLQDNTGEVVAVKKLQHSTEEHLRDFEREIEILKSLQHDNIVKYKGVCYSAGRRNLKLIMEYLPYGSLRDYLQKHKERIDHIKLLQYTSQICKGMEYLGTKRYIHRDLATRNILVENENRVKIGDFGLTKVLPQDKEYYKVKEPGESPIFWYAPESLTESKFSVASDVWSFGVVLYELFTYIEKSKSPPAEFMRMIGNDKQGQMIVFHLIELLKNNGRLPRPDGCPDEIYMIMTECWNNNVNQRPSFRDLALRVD
T3 sequence (P52333 822-1111 limits assumed): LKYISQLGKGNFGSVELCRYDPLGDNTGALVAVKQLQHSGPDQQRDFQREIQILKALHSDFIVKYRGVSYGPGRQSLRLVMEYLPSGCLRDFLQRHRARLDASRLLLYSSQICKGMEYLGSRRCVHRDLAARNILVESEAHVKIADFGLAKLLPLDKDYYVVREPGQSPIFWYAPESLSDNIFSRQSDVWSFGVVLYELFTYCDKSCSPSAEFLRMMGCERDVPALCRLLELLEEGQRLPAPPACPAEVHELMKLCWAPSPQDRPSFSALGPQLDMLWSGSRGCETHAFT
T1 sequence (P23458 850-1154): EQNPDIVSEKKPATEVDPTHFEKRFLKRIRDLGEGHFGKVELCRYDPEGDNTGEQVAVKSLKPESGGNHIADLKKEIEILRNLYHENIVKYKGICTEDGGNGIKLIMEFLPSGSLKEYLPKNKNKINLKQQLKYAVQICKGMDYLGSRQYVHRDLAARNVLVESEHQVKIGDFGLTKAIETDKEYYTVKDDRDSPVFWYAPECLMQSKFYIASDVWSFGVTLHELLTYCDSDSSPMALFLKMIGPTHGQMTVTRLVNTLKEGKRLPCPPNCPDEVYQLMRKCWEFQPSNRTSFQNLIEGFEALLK

SMILES: O=C(c1cc2cccc(F)c2[nH]1)N1CCN(c2ncnc3[nH]ccc23)CC12CC2 [Example 362, (7-Fluoro-1H-indol-2-yl)-[7-(7H-pyrrolo[2,3-d]pyrimidin-4-yl)-4,7-diaza-spiro[2.5]oct-4-yl]-methanone]
EC50 ([1]; HTRF assay): < 100 nM
EC50 ([2]; HTRF assay): < 100 nM
EC50 ([3]; HTRF assay): < 100 nM
EC50 ([4]; HTRF assay): 100 to 500 nM

SMILES: N#CCOc1cccc(C(=O)N2CCN(c3ncnc4[nH]ccc34)CC23CC3)c1 [Example 67, {3-[7-(7H-Pyrrolo[2,3-d]pyrimidin-4-yl)-4,7-diaza-spiro[2.5]octane-4-carbonyl]-phenoxy}-acetonitrile]
EC50 [1]: < 100 nM
EC50 [2]: < 100 nM
EC50 [3]: 100 to 500 nM
EC50 [4]: 100 to 500 nM

SMILES: N#CCCC(=O)N1CCN(c2ccnc3[nH]ccc23)CC12CC2 [Example 116, 4-Oxo-4-[7-(1H-pyrrolo[2,3-b]pyridin-4-yl)-4,7-diaza-spiro[2.5]oct-4-yl]-butyronitrile]
EC50 [1]: 100 to 500 nM
EC50 [2]: 100 to 500 nM
EC50 [3]: 100 to 500 nM
EC50 [4]: > 500 nM

SMILES: CC(=O)OCC(=O)Nc1nc(N2CCN(C(=O)Cc3ccc(C#N)cc3)C3(CC3)C2)c2cc[nH]c2n1 [Example 100, Acetic acid (4-{4-[2-(4-cyano-phenyl)-acetyl]-4,7-diaza-spiro[2.5]oct-7-yl}-7H-pyrrolo[2,3-d]pyrimidin-2-ylcarbamoyl)-methyl ester]
EC50 [1]: < 100 nM
EC50 [2]: < 100 nM
EC50 [3]: < 100 nM
EC50 [4]: 100 to 500 nM

SMILES: O=C(c1ccc2[nH]c(=O)ccc2c1)N1[C@@H]2CC[C@@H]1CN(c1ncnc3[nH]ccc13)C2 [Example 355, 6-[3-(7H-Pyrrolo[2,3-d]pyrimidin-4-yl)-3,8-diaza-bicyclo[3.2.1]octane-8-carbonyl]-1H-quinolin-2-one]
EC50 ([1]; HTRF assay): < 100 nM
EC50 ([2]; HTRF assay): < 100 nM
EC50 ([3]; HTRF assay): 100 to 500 nM
EC50 ([4]; HTRF assay): > 500 nM

SMILES: Cc1ccc(C(=O)N2CCN(c3ncnc4[nH]ccc34)CC23CC3)cc1C(=O)Nc1cccc(C(F)(F)F)c1 [Example 41, 2-Methyl-5-[7-(7H-pyrrolo[2,3-d]pyrimidin-4-yl)-4,7-diazaspiro[2.5]octane-4-carbonyl]-N-(3-trifluoromethylphenyl)benzamide]
EC50 [1]: 100 to 500 nM
EC50 [2]: > 500 nM
EC50 [3]: > 500 nM
EC50 [4]: > 500 nM

Second part, the molecule after the results:

EC50 ([1]; HTRF assay): 100 to 500 nM
EC50 ([2]; HTRF assay): 100 to 500 nM
EC50 ([3]; HTRF assay): 100 to 500 nM
EC50 ([4]; HTRF assay): > 500 nM
SMILES: CC(C)(C#N)C(=O)N1[C@@H]2CC[C@@H]1CN(c1ncnc3[nH]ccc13)C2 [Example 239, 2,2-Dimethyl-3-oxo-3-[3-(7H-pyrrolo[2,3-d]pyrimidin-4-yl)-3,8-diaza-bicyclo[3.2.1]oct-8-yl]-propionitrile]

EC50 ([1]; HTRF assay): > 500 nM
EC50 ([2]; HTRF assay): 100 to 500 nM
EC50 ([3]; HTRF assay): 100 to 500 nM
EC50 ([4]; HTRF assay): > 500 nM
SMILES: N#CCc1ccc(CC(=O)N2CCN(c3ncnc4[nH]cc(Cl)c34)CC23CC3)cc1 [Example 319, (4-{2-[7-(5-Chloro-7H-pyrrolo[2,3-d]pyrimidin-4-yl)-4,7-diaza-spiro[2.5]oct-4-yl]-2-oxo-ethyl}-phenyl)-acetonitrile]

EC50 ([1]; HTRF assay): 100 to 500 nM
EC50 ([2]; HTRF assay): 100 to 500 nM
EC50 ([3]; HTRF assay): > 500 nM
EC50 ([4]; HTRF assay): > 500 nM
SMILES: COc1ncccc1C(=O)N1CCN(c2ncnc3[nH]ccc23)CC12CC2 [Example 216, (2-Methoxy-pyridin-3-yl)-[7-(7H-pyrrolo[2,3-d]pyrimidin-4-yl)-4,7-diaza-spiro[2.5]oct-4-yl]-methanone]

EC50 [1]: 100 to 500 nM
EC50 [2]: 100 to 500 nM
EC50 [3]: > 500 nM
EC50 [4]: > 500 nM
SMILES: N#Cc1cccc(CC(=O)N2[C@@H]3CC[C@@H]2CN(c2ncnc4[nH]ccc24)C3)c1 [Example 179, 3-{2-Oxo-2-[3-(7H-pyrrolo[2,3-d]pyrimidin-4-yl)-3,8-diaza-bicyclo[3.2.1]oct-8-yl]-ethyl}-benzonitrile]

EC50 ([1]; HTRF assay): < 100 nM
EC50 ([2]; HTRF assay): < 100 nM
EC50 ([3]; HTRF assay): 100 to 500 nM
EC50 ([4]; HTRF assay): 100 to 500 nM
SMILES: COCCS(=O)(=O)c1ccc(C(=O)N2CCN(c3ncnc4[nH]ccc34)CC23CC3)cc1 [Example 433, [4-(2-Methoxy-ethanesulfonyl)-phenyl]-[7-(7H-pyrrolo[2,3-d]pyrimidin-4-yl)-4,7-diaza-spiro[2.5]oct-4-yl]-methanone]
